Legend:
Assay type in all cases: functional, organism-based
[1] = system: Human immunodeficiency virus 1; experiment: Antiviral activity against HIV1
[2] = system: Human immunodeficiency virus 1; experiment: Antiviral activity against HIV1 NNTRI resistant Y188L mutant
[3] = system: Human immunodeficiency virus 1; experiment: Antiviral activity against HIV1 NNTRI resistant Y181C mutant
[4] = system: Human immunodeficiency virus 1; experiment: Antiviral activity against HIV1 NNTRI resistant L100I mutant
[5] = system: Human immunodeficiency virus 1; experiment: Antiviral activity against HIV1 NNTRI resistant K103N mutant
[6] = system: Human immunodeficiency virus 1; experiment: Antiviral activity against HIV1 NNTRI resistant K103N/L100I mutant

SMILES	EC50 [1] [nM]	IC50 [1] [nM]	EC50 [2] [nM]	EC50 [3] [nM]	EC50 [4] [nM]	EC50 [5] [nM]	EC50 [6] [nM]
CCn1c(C)nnc1SCC(=O)Nc1ccccc1Cl	> 10000	> 10000	–	–	–	–	–
Cc1ccc(-n2c(C)nnc2SCC(=O)N2CCCCC2)cc1	> 10000	> 10000	–	–	–	–	–
Cc1ccc(-n2c(C)nnc2SC/C(S)=N/c2ccccc2Cl)cc1	> 10000	> 10000	–	–	–	–	–
Cc1nnc(SCC(=O)Nc2ccccc2Cl)n1Cc1ccccc1	3410	> 10000	–	–	–	–	–
COc1ccccc1-n1c(C)nnc1SCC(=O)Nc1ccccc1Cl	59	> 10000	> 1650	1050	100	1120	–
Cc1ccc(-n2c(C)nnc2SCC(=O)Nc2ccccn2)cc1	> 10000	> 10000	–	–	–	–	–
Cc1ccc(-n2c(C)nnc2SCC(=O)Nc2ccc(C#N)cc2)cc1	> 10000	> 10000	–	–	–	–	–
Cc1ccc(-n2c(C)nnc2SCC(=O)Nc2cccc(Br)c2)cc1	> 10000	> 10000	–	–	–	–	–
Cc1ccc(-n2c(C)nnc2SCC(=O)Nc2cccc(C#N)c2)cc1	> 10000	> 10000	–	–	–	–	–
Cc1ccc(-n2c(C)nnc2SCC(=O)Nc2cc(Cl)ccc2Cl)cc1	37	> 10000	> 10000	769	835	1040	–
CC(=O)N1CCN(C(=O)CSc2nnc(C)n2-c2ccc(C)cc2)CC1	> 10000	> 10000	–	–	–	–	–
Cc1ccc(-n2c(C)nnc2SCC(=O)Nc2ccc(Br)cc2)cc1	> 10000	> 10000	–	–	–	–	–
Cc1ccc(-n2c(C)nnc2SCC(=O)Nc2ccc([N+](=O)[O-])cc2)cc1	> 10000	> 10000	–	–	–	–	–
Cc1ccc(-n2c(C)nnc2SCC(=O)Nc2ccccc2F)cc1	68	> 10000	> 10000	4030	1380	3270	–
COc1cccc(NC(=O)CSc2nnc(C)n2-c2ccc(C)cc2)c1	22	> 10000	2190	161	31	82	–
COc1ccc(NC(=O)CSc2nnc(C)n2-c2ccc(C)cc2)cc1	1840	> 10000	–	–	–	–	–
CCCCCCCCCNC(=O)CSc1nnc(C)n1-c1ccc(C)cc1	> 10000	> 10000	–	–	–	–	–

SMILES	EC50 [1] [nM]	IC50 [1] [nM]	EC50 [2] [nM]	EC50 [3] [nM]	EC50 [4] [nM]	EC50 [5] [nM]	EC50 [6] [nM]
Cc1ccc(-n2c(C)nnc2SCC(=O)NC(C)(C)C)cc1	> 10000	> 10000	–	–	–	–	–
COC(=O)c1cccc(NC(=O)CSc2nnc(C)n2-c2ccc(C)cc2)c1	> 10000	> 10000	–	–	–	–	–
Cc1ccc(-n2c(C)nnc2SCC(=O)Nc2ccccc2C(F)(F)F)cc1	72	> 10000	> 10000	1380	488	1510	–
Cc1ccc(-n2c(C)nnc2SCC(=O)Nc2cccc([N+](=O)[O-])c2)cc1	> 10000	> 10000	–	–	–	–	–
Cc1nnc(SCC(=O)Nc2ccccc2Cl)n1-c1cccc2c1OCCO2	18	> 10000	> 3330	219	170	565	–
COC(=O)c1ccc(NC(=O)CSc2nnc(C)n2-c2ccc(C)cc2)cc1	822	> 10000	–	–	–	–	–
Cc1ccc(-n2c(C)nnc2SCC(=O)Nc2ccncn2)cc1	> 10000	> 10000	–	–	–	–	–
Cc1ccc(-n2c(C)nnc2SCC(=O)Nc2ccccc2Cl)cc1	3	> 10000	4310	23	–	65	182
Cc1ccc(-n2c(C)nnc2SCC(=O)Nc2ccc(Cl)cc2Cl)cc1	20	> 10000	> 3330	440	186	577	–
COc1ccc(-n2c(C)nnc2SCC(=O)Nc2ccccc2Cl)cc1	79	> 10000	> 3330	1430	1230	913	–
Cc1nnc(SCC(=O)Nc2ccccc2Cl)n1C	> 10000	> 10000	–	–	–	–	–
Cc1ccc(-n2c(C)nnc2SCC(=O)N2CCOCC2)cc1	> 10000	> 10000	–	–	–	–	–
Cc1ccc(-n2c(C)nnc2SCC(=O)Nc2cccc(C(F)(F)F)c2)cc1	2870	> 10000	–	–	–	–	–
Cc1ccc(-n2c(C)nnc2SCC(=O)Nc2ccccc2[N+](=O)[O-])cc1	1	> 10000	3600	16	–	6	24
O=C1Nc2ccc(Cl)cc2C(C#CC2CC2)(C(F)(F)F)O1 (single isomer, unassigned) [EFAVIRENZ]	–	10000	–	–	13	19	–
Cc1ccnc2c1NC(=O)c1cccnc1N2C1CC1 [NEVIRAPINE]	–	> 10000	> 10000	> 10000	–	–	–

Further lines, with some results ahead:

EC50 [1] [nM]	IC50 [1] [nM]	SMILES	EC50 [2] [nM]	EC50 [3] [nM]	EC50 [4] [nM]	EC50 [5] [nM]	EC50 [6] [nM]
1360	> 10000	Cc1ccc(-n2c(C)nnc2SCC(=O)Nc2ccc(Cl)cc2)cc1	–	–	–	–	–
2050	> 10000	Cc1ccc(-n2c(C)nnc2SCC(=O)Nc2ccccc2)cc1	–	–	–	–	–
112	> 10000	Cc1ccc(-n2c(C)nnc2SCC(=O)Nc2ccccc2C)cc1	–	–	–	–	–
> 10000	> 10000	Cc1ccc(NC(=O)CSc2nnc(C)n2-c2ccc(C)cc2)cc1	–	–	–	–	–
170	> 10000	Cc1ccc(-n2c(C)nnc2SCC(=O)Nc2ccccc2C#N)cc1	–	–	–	–	–
> 10000	> 10000	Cc1ccc(-n2c(C)nnc2SCC(=O)Nc2ccccc2Br)cc1	–	–	–	–	–
1070	> 10000	Cc1ccc(-n2c(COc3ccccc3)nnc2SCC(=O)Nc2ccccc2Cl)cc1	–	–	–	–	–
4210	> 10000	Cc1ccc(-n2c(SCC(=O)Nc3ccccc3Cl)nnc2-c2ccncc2)cc1	–	–	–	–	–
2070	> 10000	COc1ccccc1-c1nnc(SCC(=O)Nc2ccccc2Cl)n1-c1ccc(C)cc1	–	–	–	–	–
412	> 10000	Cc1ccc(-n2c(C)nnc2SCC(=O)Nc2ccc3ccccc3c2)cc1	–	–	–	–	–
128	> 10000	Cc1ccc(-n2c(C)nnc2SCC(=O)Nc2cccc(C)c2C)cc1	–	–	–	–	–
215	> 10000	Cc1ccc(-n2c(C)nnc2SCC(=O)Nc2ccc(Cl)cc2C)cc1	–	–	–	–	–
3780	> 10000	Cc1ccc(-n2c(SCC(=O)Nc3ccccc3Cl)nnc2-c2ccc(Cl)cc2)cc1	–	–	–	–	–
1420	> 10000	Cc1ccc(-n2c(Cc3ccccc3)nnc2SCC(=O)Nc2ccccc2Cl)cc1	–	–	–	–	–
310	> 10000	Cc1nnc(SCC(=O)Nc2ccccc2Cl)n1-c1ccccc1	–	–	–	–	–
614	> 10000	COC(=O)c1ccccc1NC(=O)CSc1nnc(C)n1-c1ccc(C)cc1	–	–	–	–	–
> 10000	> 10000	Cc1ccc(-n2c(C)nnc2SCC(=O)N(C)c2ccccc2Cl)cc1	–	–	–	–	–

Source: ChEMBL document CHEMBL1146046, “Synthesis and biological evaluations of sulfanyltriazoles as novel HIV-1 non-nucleoside reverse transcriptase inhibitors” (Bioorg Med Chem Lett, 2006)
